According to US10125134B2 (Mirati Therapeutics, Inc., priority 2016, dated 2018):
pIC50: −log10 of the molar value. Where two headings read alike, the source gives them in different places.

What was measured:
[1] = test system: NCI-H358 cells (express KRas G12C), Phospho-ERK; test: Cellular inhibition of KRas G12C: Phospho-ERK in NCI-H358 cells; type: cell-based; settings: Homo sapiens, pERK(Thr202/Tyr204) normalized with GAPDH, NCI-H358 cells, 3 hours, read-out: IC50
Outline: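 IC50 derived by 4-parameter fit of GAPDH-normalized pERK(Thr202/Tyr204) signal, as percent of DMSO control. Signal came from in-cell immunodetection with infrared secondaries after 3 h compound exposure of KRas G12C NCI-H358 cells at 0.5% DMSO.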

[2] = target: KRas G12C (Homo sapiens, UniProt P01116, C118S/C51S/C80L/G12C); test: KRas G12C Modification Assay (LCMS detection of covalent adduct); type: binding; settings: normalized percent of control; tested at 5 μM concentration for 3 hours
Outline: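 Covalent modification was read by reverse-phase LC/MS of intact protein after compound exposure, each reaction stopped at its time point with 25 mM acetic acid. Unmodified-protein signal, taken as percent of total, was normalised to untreated protein and reported as POC.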

| Compound | POC [2] | pIC50 ([1]; NCI-H358, 3 h) | pIC50 [1] |
| --- | --- | --- | --- |
| C=CC(=O)N1CCN(c2nc(OC[C@@H]3CCCN3C)nc3c2CCN(c2cccc4cccc(F)c24)C3)C[C@@H]1CC#N [Example 338, 2-((S)-1-acryloyl-4-(7-(8-fluoronaphthalen-1-yl)-2-(((S)-1-methylpyrrolidin-2-yl)methoxy)-5,6,7,8-tetrahydropyrido[3,4-d]pyrimidin-4-yl)piperazin-2-yl)acetonitrile] | C (“C”>50% POC) | 6.00 to 10.00 |  |
| C=CC(=O)N1CCN(c2nc(OC[C@@H]3CCN(C)C3)nc3c2CCN(c2cccc4ccccc24)C3)CC1CC#N (stereo partly drawn) [Example 177, 2-[4-[2-[[(3R)-1-methylpyrrolidin-3-yl]methoxy]-7-(1-naphthyl)-6,8-dihydro-5H-pyrido[3,4-d]pyrimidin-4-yl]-1-prop-2-enoyl-piperazin-2-yl]acetonitrile] | C (“C”>50% POC) |  | 6.00 to 10.00 |
| C=CC(=O)N1CCN(c2nc(OCCN3CCCCC3)nc3c2CCN(c2c(C)ccc4[nH]ncc24)C3)CC1 [Example 164] | C (“C”>50% POC) |  | < 6.00 |
| C=CC(=O)N1CCN(c2nc(OC[C@@H]3CCCN3CC)nc3c2CCN(c2cccc(Cl)c2C(F)(F)F)C3)C[C@@H]1CC#N [Example 339, 2-((S)-1-acryloyl-4-(7-(3-chloro-2-(trifluoromethyl)phenyl)-2-(((S)-1-ethylpyrrolidin-2-yl)methoxy)-5,6,7,8-tetrahydropyrido[3,4-d]pyrimidin-4-yl)piperazin-2-yl)acetonitrile] | C (“C”>50% POC) | 6.00 to 10.00 |  |
| C=CC(=O)N1CCN(c2nc(OC[C@@H]3C[C@H](O)CN3C)nc3c2CCN(c2cccc4ccccc24)C3)CC1CC#N (stereo partly drawn) [Example 418, 2-(1-acryloyl-4-(2-(((2S,4S)-4-hydroxy-1-methylpyrrolidin-2-yl)methoxy)-7-(naphthalen-1-yl)-5,6,7,8-tetrahydropyrido[3,4-d]pyrimidin-4-yl)piperazin-2-yl)acetonitrile] | C (“C”>50% POC) | 6.00 to 10.00 |  |
| C=CC(=O)N1CCN(c2nc(OC[C@@H]3CCCN3C)nc3c2CCN(c2cccc(OC)c2F)C3)CC1CC#N (stereo partly drawn) [Example 307, 2-[4-[7-(2-fluoro-3-methoxy-phenyl)-2-[[(2S)-1-methylpyrrolidin-2-yl]methoxy]-6,8-dihydro-5H-pyrido[3,4-d]pyrimidin-4-yl]-1-prop-2-enoyl-piperazin-2-yl]acetonitrile] | C (“C”>50% POC) | < 6.00 |  |

Continued, in another order:

| POC [2] | Compound | pIC50 ([1]; NCI-H358, 3 h) | pIC50 [1] |
| --- | --- | --- | --- |
| C (“C”>50% POC) | C=CC(=O)N1CCN(c2nc(OC[C@@H]3CCCN3CC)nc3c2CCN(c2cccc4ccccc24)C3)CC1CC#N (stereo partly drawn) [Example 233, 2-(1-acryloyl-4-(2-(((S)-1-ethylpyrrolidin-2-yl)methoxy)-7-(naphthalen-1-yl)-5,6,7,8-tetrahydropyrido[3,4-d]pyrimidin-4-yl)piperazin-2-yl)acetonitrile] | 6.00 to 10.00 |  |
| C (“C”>50% POC) | C=CC(=O)N1CCN(c2nc(OC[C@@H]3CCCCN3C)nc3c2CCN(c2cccc4ccccc24)C3)C[C@@H]1CC#N [Example 377, 2-((S)-1-acryloyl-4-(2-(((S)-1-methylpiperidin-2-yl)methoxy)-7-(naphthalen-1-yl)-5,6,7,8-tetrahydropyrido[3,4-d]pyrimidin-4-yl)piperazin-2-yl)acetonitrile] | 6.00 to 10.00 |  |
| C (“C”>50% POC) | C=CC(=O)N1CCN(c2nc(OC[C@@H]3CCCN3C)nc3c2CCN(c2cccc4ccccc24)C3)C(CC#N)C1 (stereo partly drawn) [Example 437, 2-(4-acryloyl-1-(2-(((S)-1-methylpyrrolidin-2-yl)methoxy)-7-(naphthalen-1-yl)-5,6,7,8-tetrahydropyrido[3,4-d]pyrimidin-4-yl)piperazin-2-yl)acetonitrile] | < 6.00 |  |
